The source of these data is PMC6008491, “Discovery of a novel allosteric inhibitor scaffold for polyadenosine-diphosphate-ribose polymerase 14 (PARP14) macrodomain 2” (Bioorganic & Medicinal Chemistry, 2018).

Structures can show the parent of a compound that is named as a salt. Where two headings read alike, the source gives them in different places. A value given as a limit tells only on which side of the number the result lay.

Assay [1] has as its target T1, PARP14 MD2 (Homo sapiens, UniProt Q460N5).
T1 sequence (Q460N5 1003-1190 limits assumed): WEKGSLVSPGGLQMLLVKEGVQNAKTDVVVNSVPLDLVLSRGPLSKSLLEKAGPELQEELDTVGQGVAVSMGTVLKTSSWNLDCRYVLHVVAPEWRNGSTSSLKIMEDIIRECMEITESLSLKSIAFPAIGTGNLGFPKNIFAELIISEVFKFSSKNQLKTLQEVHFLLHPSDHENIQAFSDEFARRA
In words: AlphaScreen competitive binding assay, displacement of ADP-ribose peptide from PARP14 MD2. More on the design: PARP14 MD2 (second MD of PARP14). An excerpt:
(§1) Compounds were profiled for binding activity with PARP14 MD2 through a competitive (AlphaScreen™) binding assay measuring the displacement of ADP-ribose peptide from PARP14 MD2.[11a]

The target of assay [2] is T1, PARP14 MD2. In words: Biophysical KD determination (Bio-Layer Interferometry or Isothermal Titration Calorimetry). The format is binding. More on the design: PARP14 MD2 (second MD of PARP14).
From the text: as §1
A general note: In BLI a coated tip is dipped into the sample, and binding shifts an interference pattern.

For assay [3], the target named is T1, PARP14 MD2. In words: BioLayer Interferometry (BLI).
The mark [4] stands for this setting: Table 1, AlphaScreen, PARP14 MD2, read-out: IC50.
Setting [5] is: Table 2, AlphaScreen, PARP14 MD2, read-out: IC50.
[6] abbreviates: text and figures, read-out: PARP14 MD2 IC50.

The IC50 is the concentration at which inhibition is half-maximal. Broadly, the Kd is the concentration at which binding is half-saturated. `CC(=O)Nc1cccc(C)c1-c1cccc2c1[nH]c1ccccc12` [compound 57, N-(2-(9H-Carbazol-1-yl)-3-methylphenyl)acetamide]: the IC50 in assay [1] (setting [4]) is 1.7 ± 0.1 µM. This compound yielded a Kd in assay [2] (Table 1, BLI or ITC) of 1.6 ± 0.7 µM.
Turning to `Cc1ccc(CC(=O)Nc2ccccc2-c2cccc3c2[nH]c2ccccc23)cn1` [compound 84, N-(2-(9H-Carbazol-1-yl)phenyl)-2-(6-methylpyridin-3-yl)acetamide], in assay [1] (setting [5]), the IC50 turned out to be 1 µM. Further, binding in assay [2] (Table 2, BLI or ITC) was put at a Kd of 2.7 µM.
`CS(=O)(=O)Nc1cc(C#N)ccc1-c1cccc2c1[nH]c1ccccc12` [compound 56, N-(2-(9H-Carbazol-1-yl)-5-cyanophenyl)methanesulfonamide]: in assay [2] (Table 1, BLI or ITC), the Kd came out at 5.2 ± 1.7 µM.
Consider `O=C(Cc1cnccn1)Nc1ccccc1-c1cccc2c1[nH]c1ccccc12` [compound 85, N-(2-(9H-Carbazol-1-yl)phenyl)-2-(pyrazin-2-yl)acetamide], for which, in assay [1] (setting [5]), the IC50 is 2.1 ± 0.1 µM. The compound further came in with a Kd in assay [2] (Table 2, BLI or ITC) of 3.9 µM.
As to `COc1ccc2[nH]c3c(-c4ccccc4NC(C)=O)cccc3c2c1` [compound 39, N-[2-(6-Methoxy-9H-carbazol-1-yl)phenyl]acetamide], in assay [1], the “inhibition of PARP14 MD2 (in words)” value is “inactive”.
Regarding `CC(=O)Nc1cnccc1-c1cccc2c1[nH]c1ccccc12` [compound 17], the IC50 in assay [1] (setting [4]) is over 50 µM.
In the case of `N#Cc1ccc(CS(=O)(=O)Nc2ccccc2-c2cccc3c2[nH]c2ccccc23)cc1` [compound 95, N-(2-(9H-Carbazol-1-yl)phenyl)-1-(4-cyanophenyl)methanesulfonamide], in assay [1] (setting [5]), the IC50 amounted to 6.2 ± 0.6 µM.
Turning to `CC(=O)Nc1ccccc1-c1cccc2c1oc1ccccc12` [compound 26, N-[2-(Dibenzofuran-4-yl)phenyl]acetamide], the IC50 in assay [1] (setting [6]) is over 50 µM.
Consider `O=C(Cc1cccc(C(F)(F)F)c1)Nc1ccccc1-c1cccc2c1[nH]c1ccccc12` [compound 106, N-(2-(9H-Carbazol-1-yl)phenyl)-2-(3-(trifluoromethyl)phenyl)acetamide], for which the half-inhibitory concentration (IC50) in assay [1] (setting [5]) was found to be 7.1 ± 0.7 µM.
Regarding `O=C(Cc1ccccc1Cl)Nc1ccccc1-c1cccc2c1[nH]c1ccccc12` [compound 91, N-(2-(9H-Carbazol-1-yl)phenyl)-2-(2-chlorophenyl)acetamide], in assay [1] (setting [5]), the IC50 amounted to 4.4 ± 0.3 µM.
As to `CC(=O)Nc1cccnc1-c1cccc2c1[nH]c1ccccc12` [compound 16, N-[2-(9H-Carbazol-1-yl)pyridin-3-yl]acetamide], in assay [1] (setting [6]), the IC50 was over 50 µM.
Consider `N#Cc1ccc(F)c(CS(=O)(=O)Nc2ccccc2-c2cccc3c2[nH]c2ccccc23)c1` [compound 100, N-(2-(9H-Carbazol-1-yl)phenyl)-1-(5-cyano-2-fluorophenyl)methanesulfonamide], for which, in assay [1] (setting [5]), the IC50 turned out to be 1.2 µM. Besides, binding in assay [2] (Table 2, BLI or ITC) was characterised by a dissociation constant (Kd) of 1.3 µM.
Regarding `CS(=O)(=O)Nc1ccc(C(F)(F)F)cc1-c1cccc2c1[nH]c1ccccc12` [compound 58, N-(2-(9H-Carbazol-1-yl)-4-(trifluoromethyl)phenyl)methanesulfonamide], the IC50 in assay [1] (setting [4]) is over 50 µM.
In the case of `O=C(Nc1ccccc1-c1cccc2c1[nH]c1ccccc12)C1CC1` [compound 74, N-(2-(9H-carbazol-1-yl)phenyl)cyclopropanecarboxamide], in assay [1] (setting [4]), the IC50 is 1.2 ± 0.03 µM.
On to `Cc1ccc(-c2cccc3c2[nH]c2ccccc23)c(NS(C)(=O)=O)c1` [compound 55, N-(2-(9H-Carbazol-1-yl)-5-methylphenyl)methanesulfonamide], for which, in assay [1] (setting [4]), the IC50 was 1.1 ± 0.1 µM.
With `CC(=O)Nc1ccccc1-c1cccc2c1C(=O)c1ccccc1-2` [compound 28, N-[2-(9-Oxo-9H-fluoren-1-yl)phenyl]acetamide], the IC50 in assay [1] (setting [6]) was over 50 µM.
Turning to `CC(=O)Nc1ccccc1-c1cccc2c1sc1ccccc12` [compound 27, N-[2-(Dibenzothiophen-4-yl)phenyl]acetamide], the IC50 in assay [1] (setting [6]) was determined as 2.5 µM.
On to `N#Cc1cccc(CS(=O)(=O)Nc2ccccc2-c2cccc3c2[nH]c2ccccc23)c1` [compound 108, N-(2-(9H-Carbazol-1-yl)phenyl)-1-(3-cyanophenyl)methanesulfonamide], for which the IC50 in assay [1] (setting [5]) is 0.66 ± 0.03 µM. The dissociation constant (Kd) in assay [2] (Table 2, BLI or ITC) is 0.55 µM; in assay [3] (read-out: KD (BLI)), 0.55 µM; in assay [3] (read-out: calculated KD (BLI)) it was 0.55 µM.
For `O=C(Cc1cccnc1)Nc1ccccc1-c1cccc2c1[nH]c1ccccc12` [compound 83, N-(2-(9H-Carbazol-1-yl)phenyl)-2-(pyridin-3-yl)acetamide], the IC50 in assay [1] (setting [5]) was 1.1 µM. Besides, the affinity in assay [2] (Table 2, BLI or ITC), expressed as Kd, was 1.5 µM.
As to `CCN(C(C)=O)c1ccccc1-c1cccc2c1[nH]c1ccccc12` [compound 54, N-[2-(9H-Carbazol-1-yl)phenyl]-N-ethylacetamide], the IC50 in assay [1] (setting [4]) is over 50 µM.
For the compound `CC(C)(C)NC(=O)Nc1ccccc1-c1cccc2c1[nH]c1ccccc12` [compound 49, 1-[2-(9H-Carbazol-1-yl)phenyl]-3-(tert-butyl)urea], the IC50 in assay [1] (setting [4]) is 7.2 ± 1.4 µM.
For the compound `CC(=O)Nc1ccccc1-c1cccc2c3c([nH]c12)CCCC3` [compound 44, N-[2-(5,6,7,8-Tetrahydro-9H-carbazol-1-yl)phenyl]acetamide], in assay [1] (setting [6]), the IC50 worked out at 1.1 µM.
Consider `O=S(=O)(Cc1ccc(C(F)(F)F)cc1)Nc1ccccc1-c1cccc2c1[nH]c1ccccc12` [compound 97, N-(2-(9H-Carbazol-1-yl)phenyl)-1-(4-(trifluoromethyl)phenyl)methanesulfonamide], for which, in assay [1] (setting [5]), the IC50 was 8.1 ± 0.7 µM.
Take `CC(=O)Nc1ccccc1-c1cccc2c(=O)c3ccccc3[nH]c12` [compound 33, N-[2-(9-Oxo-9,10-dihydroacridin-4-yl)phenyl]acetamid]: in assay [1], the “inhibition of PARP14 MD2 (in words)” value was “inactive”.
On to `O=C(Cc1ccc2c(c1)OCO2)Nc1ccccc1-c1cccc2c1[nH]c1ccccc12` [compound 99, N-(2-(9H-Carbazol-1-yl)phenyl)-2-(benzo[d][1,3]dioxol-5-yl)acetamide], for which, in assay [1] (setting [5]), the IC50 is 6.9 ± 0.6 µM.
Consider `CC(=O)Nc1ccccc1-c1cccc2c3c([nH]c12)CCNC3` [compound 47, N-[2-(2,3,4,5-Tetrahydro-1H-pyrido[4,3-b]indol-6-yl)phenyl]acetamide hydrochloride], for which the “inhibition of PARP14 MD2 (in words)” value in assay [1] was “inactive”.
As to `CCCC(=O)Nc1ccccc1-c1cccc2c1[nH]c1ccccc12` [compound 67, N-(2-(9H-carbazol-1-yl)phenyl)butyramide], the IC50 in assay [1] (setting [4]) was found to be 0.9 ± 0.04 µM.
Consider `O=C(Cc1ccc(Cl)c(Cl)c1)Nc1ccccc1-c1cccc2c1[nH]c1ccccc12` [compound 102, N-(2-(9H-Carbazol-1-yl)phenyl)-2-(3,4-dichlorophenyl)acetamide], for which the IC50 in assay [1] (setting [5]) is 6.3 ± 0.6 µM.
Consider `COc1ccc(C(=O)Nc2ccccc2-c2cccc3c2[nH]c2ccccc23)cc1` [compound 82, N-(2-(9H-Carbazol-1-yl)phenyl)-4-methoxybenzamide], for which, in assay [1] (setting [4]), the IC50 amounted to 9 ± 1.4 µM.
As for `O=C(Cc1ccccc1)Nc1ccccc1-c1cccc2c1[nH]c1ccccc12` [compound 78, N-(2-(9H-Carbazol-1-yl)phenyl)-2-phenylacetamide], the IC50 in assay [1] (setting [4]) worked out at 7.6 ± 0.3 µM.
Regarding `O=S(=O)(Nc1ccccc1-c1cccc2c1[nH]c1ccccc12)c1ccccc1` [compound 72, N-(2-(9H-Carbazol-1-yl)phenyl)benzenesulfonamide], the IC50 in assay [1] (setting [4]) was over 50 µM.
